Patent US6555333B1, “Broad spectrum fastidious organism culture medium” (priority 2002, dated 2003)

Columns and labels:
Haemophilus influenzae [1] = assay: MIC testing (Etest strip) on the culture medium of Example 1; type: cell-based; conditions: for Observed MIC Breakpoints I: I = intermediate; for Observed MIC Breakpoints R: R = resistant; for Observed MIC Breakpoints S: S = susceptible
Text: (§1) The culture medium of the invention was used in both Minimum Inhibitory Concentration (MIC) testing and Bauer-Kirby Disk Susceptibility testing for the pathogenic bacteria noted in the table below with the antimicrobial agents noted therein using the protocol and standards set forth in NCCLS Bulletin No. M2-A7 and in the Supplemental Tables appendix thereto, the disclosures of which are incorporated herein by reference.
(§2) The general procedure was as follows: pathogenic bacteria specimens were obtained from American Type Culture Collection control lots and 10 isolates were obtained from all species except Campylobacter, from which 6 isolates were obtained. Petri dishes 150 mm in diameter were autoclaved and filled with the culture medium of Example 1 and brought to room temperature. Each plate was then swab-inoculated with a suspension of one of the pathogenic bacteria equivalent to a 0.5 McFarland Standard, and then the antimicrobial-impregnated disk or antimicrobial-impregnated strip for IC measurement (Etest strip from Biodisk AB, of Solna, Sweden) were pressed into the surface of the culture medium. The plates were incubated at 35° C. for 24 hours in atmospheres containing 5-7% CO2 and the disk diffusion zones were measured, with the exception that plates inoculated with the Campylobacter species were placed into microaerophilic chambers from Mitsubishi Gas & Chemical Co. of Japan and incubated at 35° C. for 48 hours. The tests were conducted in duplicate for each pathogenic bacteria/antimicrobial agent combination on three batches of the culture medium of Example 1, for a total of six tests for each combination. Geometric mean MIC values and arithmetic mean values of zone diameters from the Disk Diffusion tests were calculated from the data, and are reported in the table below.

Haemophilus influenzae [2] = assay: Bauer-Kirby Disk Susceptibility testing on the culture medium of Example 1; type: cell-based; conditions: for Observed Disk Diff. Breakpoints I: I = intermediate; for Observed Disk Diff. Breakpoints R: R = resistant; for Observed Disk Diff. Breakpoints S: S = susceptible
Text: as §1, §2

Haemophilus influenzae [3] = conditions: different known culture media; cited from earlier work
Viridans streptococci [4] = assay: MIC testing (Etest strip) on the culture medium of Example 1; type: cell-based
Text: as §1, §2

S. pneumoniae [5] = assay: as above; type: cell-based
Text: as §1, §2

Viridans streptococci [6] = assay: Bauer-Kirby Disk Susceptibility testing on the culture medium of Example 1; type: cell-based
Text: as §1, §2

S. pneumoniae [7] = assay: as above; type: cell-based
Text: as §1, §2

| Structure (SMILES) | Observed MIC Breakpoints I (Haemophilus influenzae [1]) | Observed MIC Breakpoints R (Haemophilus influenzae [1]) | Observed MIC Breakpoints S (Haemophilus influenzae [1]) | Observed Disk Diff. Breakpoints I (Haemophilus influenzae [2]) | Observed Disk Diff. Breakpoints R (Haemophilus influenzae [2]) | Observed Disk Diff. Breakpoints S (Haemophilus influenzae [2]) | Reported MIC Breakpoints (Haemophilus influenzae [3]) | Observed MIC Breakpoints I (Viridans streptococci [4]; I = intermediate) | Observed MIC Breakpoints R (Viridans streptococci [4]; R = resistant) | Observed MIC Breakpoints S (Viridans streptococci [4]; S = susceptible) | Observed MIC Breakpoints I (S. pneumoniae [5]; I = intermediate) | Observed MIC Breakpoints R (S. pneumoniae [5]; R = resistant) | Observed MIC Breakpoints S (S. pneumoniae [5]; S = susceptible) | Observed Disk Diff. Breakpoints I (Viridans streptococci [6]; I = intermediate) | Observed Disk Diff. Breakpoints R (Viridans streptococci [6]; R = resistant) | Observed Disk Diff. Breakpoints S (Viridans streptococci [6]; S = susceptible) | Observed Disk Diff. Breakpoints I (S. pneumoniae [7]; I = intermediate) | Observed Disk Diff. Breakpoints R (S. pneumoniae [7]; R = resistant) | Observed Disk Diff. Breakpoints S (S. pneumoniae [7]; S = susceptible) |
| --- | --- | --- | --- | --- | --- | --- | --- | --- | --- | --- | --- | --- | --- | --- | --- | --- | --- | --- | --- |
| CC1(C)S[C@@H]2[C@H](NC(=O)[C@H](N)c3ccccc3)C(=O)N2[C@H]1C(=O)O [Ampicillin] | 8 µg/mL | ≧16 μg/mL | ≦4 μg/mL | 13-16 mm | ≦12 mm | ≧17 mm | (1-4) μg/mL | – | – | – | – | – | – | – | – | – | – | – | – |
| O=C(N[C@H](CO)[C@H](O)c1ccc([N+](=O)[O-])cc1)C(Cl)Cl [Chloramphenicol] | 4 µg/mL | ≧8 μg/mL | ≦2 μg/mL | 20-24 mm | ≦19 mm | ≧25 mm | (2-8) μg/mL | – | – | – | – | – | – | – | – | – | – | – | – |
| CN(C)[C@@H]1C(O)=C(C(N)=O)C(=O)[C@@]2(O)C(O)=C3C(=O)c4c(O)cccc4[C@@](C)(O)[C@H]3C[C@@H]12 [Tetracycline] | 4 µg/mL | ≧8 μg/mL | ≦2 μg/mL | 19-24 mm | ≦20 mm | ≧25 mm | – | 2 to 4 µg/mL | ≧8 μg/mL | ≦1 μg/mL | 2 to 4 µg/mL | ≧8 μg/mL | ≦1 μg/mL | 18-22 mm | ≦17 mm | ≧23 mm | 14-22 mm | ≦13 mm | ≧23 mm |
